Non-standard residues stand in square brackets, D forms with d. Residues, ends and D or L forms follow the SMILES beside them. No end group written: not given here.
Key:
[1] = system: A. baumannii A-8.2–1 (XDR); assay: microbe, parasite or virus in culture; format: cell-based, Acinetobacter baumannii; details: clinical isolate A-8.2–1 (XDR), blood
Procedure, shortened: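 Modified CLSI broth microdilution: mid-log bacteria in Müeller-Hinton broth at 2–8 × 10^5 CFU/mL incubated with test agents in 96-well plates. MBC taken as lowest peptide concentration giving no colonies when non-turbid MIC wells were plated on agar. Triplicate.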

[2] = system: mouse fibroblast (L929) cells; assay: In vitro cytotoxicity assay (MTT); format: cell-based; details: 24 h
Experimental: The colorimetric 3-(4,5 dimethylthiazol-2-yl)-2,5-diphenyltetrazolium bromide (MTT; Invitrogen) dye reduction assay was used to determine the cytotoxicity of peptides on mouse fibroblast (L929) cells (NCTC clone 929) according to a modified MTT assay. L929 cells were cultured in Dulbecco’s Modified Eagle Medium (DMEM; Gibco) containing 10% fetal bovine serum (FBS; Gibco) and 100 U/ml penicillin–streptomycin in a fully humidified atmosphere of 95% air and 5% CO2 at 37 °C. The cells (10^5 cells/well) were seeded on 96-well plates and incubated with serially diluted peptide (0.98 to 250 μg/ml) for 24 h. At the end of incubation period, MTT solution (100 µl, 0.4 mg/ml) was added to each well and incubated for 4 h. The supernatants were removed and replaced by 100 µl of DMSO to dissolve the purple formazan crystals. Absorbance was measured using a MultiskanTM FC microplate reader at a wavelength of 570 nm. Cells without peptides served as negative controls. Cell viability (percentage) was calculated using the following equation: %Cell viability=OD570of treated sample-ODBlank/OD570of control-ODBlank×100%

[3] = system: A. baumannii ATCC 19,606; assay: Peptide stability to proteolytic enzymes (MIC/MBC after pre-incubation); format: cell-based, Acinetobacter baumannii; details: for MBC, control / MIC, control: control: absence of human plasma and proteolytic enzymes, A. baumannii ATCC 19,606; for MBC in the presence of pepsin / MIC in the presence of pepsin: peptide pre-incubated with 1 mg/ml pepsin
Experimental: (§1) Minimum inhibitory concentration (MIC) of peptides and antibiotics was assessed by a modified version of the broth microdilution method from the Clinical and Laboratory Standards Institute (CLSI) as previously described. In brief, mid-log phase growths of microbial strains were cultured in Müeller-Hinton broth (MHB) with an initial inoculum of 2–8 × 10^5 CFU/mL. Bacteria suspensions were incubated in sterile 96-well plates with test agents at desired concentrations. […] Minimum bactericidal concentration (MBC) determination was performed using a modified version of the colony count assay. In brief, fifty µl of all non-turbid wells from MIC experiments were spread on agar plates. The MBC value was defined as the lowest concentration of peptides with no colony growth on the plate. All assays were performed in triplicate.
(§2) The MIC and MBC assays were performed after peptide was exposed to various conditions, including proteolytic enzymes, serum salts and human plasma. […] To determine peptide sensitivity to physiological salts, approximately 5 × 10^5 CFU/ml of A. baumannii ATCC 19,606 was mixed with the MHB containing different physiological salts at final concentration as follows: 150 mM NaCl, 4.5 mM KCl, 1 mM MgCl2, 6 µM NH4Cl, 8 µM ZnCl2, 4 µM FeCl3 and […]. After treatment, the MIC was evaluated as described in 2.4. To test the stability of peptides in human plasma, peptide was mixed with pure human plasma, and the mixture was incubated for 1 h at 37 °C. Then, the mixture was two-fold serially diluted with sterile MHB. The peptides at final concentrations of 0.98 to 250 µg/ml were incubated with an equal volume of bacterial suspension at 37 °C for 24 h. MIC values were determined as described in 2.4.

[4] = system: A. baumannii D-10.1–2 (MDR); format: cell-based, Acinetobacter baumannii; details: clinical isolate D-10.1–2 (MDR), urine
From the text: (§3) Ten strains of both Gram-positive and -negative bacteria, including Staphylococcus aureus ATCC 25,923, S. epidermidis ATCC 12,228, Bacillus cereus ATCC 11,778, Listeria monocytogenes 10403S, Salmonella typhimurium ATCC 13,311, Pseudomonas aeruginosa ATCC 27,853, Shigella sonnei ATCC 11,060, A. baumannii ATCC 19,606, Escherichia coli ATCC 25,922 and E. coli O157:H7, were used in this study. Eight clinical isolates of multidrug-resistant (MDR) and extensively drug-resistant (XDR) A. baumannii, isolated from human (blood, sputum, respiratory sample, sterile site sample and urine), were kindly provided by Asst. Prof. Dr. Sakawrat Kanthawong (Faculty of Medicine, Khon Kaen University, Thailand) (Table S1). All bacterial strains, excluding L. monocytogenes 10403S and E. coli, were cultured in tryptic soy broth (TSB). L. monocytogenes was grown in TSB supplemented with 0.6% yeast extract (TSB-YE), and E. coli was cultured in Luria broth (LB). All of bacteria were cultured at 37 °C with continuous shaking at 220 rpm.
as §1

[5] = system: A. baumannii D-10.1–1 (MDR); format: cell-based, Acinetobacter baumannii; details: clinical isolate D-10.1–1 (MDR), urine
From the text: as §3, §1

[6] = system: A. baumannii ATCC 19,606; assay: Peptide sensitivity to physiological salts (MIC/MBC); format: cell-based, Acinetobacter baumannii; details: for MBC in the presence of FeCl3 / MIC in the presence of FeCl3: MHB with 4 µM FeCl3; for MBC in the presence of NH4Cl / MIC in the presence of NH4Cl: MHB with 6 µM NH4Cl; for MBC in the presence of ZnCl2 / MIC in the presence of ZnCl2: MHB with 8 µM ZnCl2; for MBC in the presence of MgCl2 / MIC in the presence of MgCl2: MHB with 1 mM MgCl2; for MBC in the presence of KCl / MIC in the presence of KCl: MHB with 4.5 mM KCl; for MBC in the presence of NaCl / MIC in the presence of NaCl: MHB with 150 mM NaCl; for MBC in the presence of CaCl2 / MIC in the presence of CaCl2: MHB with […] CaCl2; for MBC, control / MIC, control: control: absence of serum salts, MHB
Experimental: as §1, §2

[7] = system: human red blood cells (hRBCs); assay: Hemolysis assay; format: cell-based; details: hRBCs, peptide 250 µg/mL, 1 h, 37 °C
Experimental: The hemolytic activity of peptides was determined as the amount of hemoglobin released from lysed human red blood cells (hRBCs) after treatment with peptide. Fresh hRBCs were collected from a healthy volunteer in polycarbonate tubes containing heparin. Then, the collected packed RBCs were washed at least three times (or until the supernatant was clear) with sterile phosphate-buffered saline pH 7.4 (PBS) and centrifuged at 2,000 × g for 5 min. The 2% (v/v) of washed hRBCs in PBS were incubated with serially diluted peptides (0.98 to 250 μg/ml) for 1 h at 37 °C. After centrifugation, the supernatants were monitored for optical density (OD) at 405 nm using a Multiskan FC Microplate Reader[21]. Values for 0% (negative control) and 100% (positive control) lysis were determined by incubating the hRBCs with PBS only (ODBlank) and 0.1% (v/v) Triton X-100 (ODTriton X-100), respectively. The experiments were performed in triplicate. The percent hemolysis was calculated according to the following equation: %Hemolysis=ODSample-ODBlank/ODTriton X-100-ODBlank×100

[8] = peptide pre-incubated with 1 mg/ml proteinase K, 37 °C, 1 h
[9] = peptide pre-incubated with 1 mg/ml trypsin, 37 °C, 1 h

| Compound | MBC [1] | MIC [1] | MBC, control [3] | MIC, control [3] | MBC in the presence of pepsin ([3]; 37 °C, 1 h) | MIC in the presence of pepsin ([3]; 37 °C, 1 h) | MBC [4] | MIC [4] | MBC [5] | MIC [5] | MBC in the presence of FeCl3 [6] | MIC in the presence of FeCl3 [6] | MBC in the presence of NH4Cl [6] | MIC in the presence of NH4Cl [6] | MBC in the presence of ZnCl2 [6] | MIC in the presence of ZnCl2 [6] | MBC in the presence of MgCl2 [6] | MIC in the presence of MgCl2 [6] | MBC in the presence of KCl [6] | MIC in the presence of KCl [6] | also measured |
| --- | --- | --- | --- | --- | --- | --- | --- | --- | --- | --- | --- | --- | --- | --- | --- | --- | --- | --- | --- | --- | --- |
| RLFRRVKKVAGKIAKRIWK-NH2 [AP19] | 3.91(3.91) µg/ml | 3.91(3.91) µg/ml | 7.81(7.81) µg/ml | 7.81(7.81) µg/ml | 31.25(31.25) µg/ml | 31.25(31.25) µg/ml | 3.91(3.91) µg/ml | 3.91(3.91) µg/ml | 7.81(7.81) µg/ml | 7.81(7.81) µg/ml | 7.81(7.81) µg/ml | 7.81(7.81) µg/ml | 7.81(7.81) µg/ml | 7.81(7.81) µg/ml | 7.81(7.81) µg/ml | 7.81(7.81) µg/ml | 7.81(7.81) µg/ml | 7.81(7.81) µg/ml | 7.81(7.81) µg/ml | 7.81(7.81) µg/ml | cell viability ([2]; all tested peptide concentrations (0.98 to 250 μg/ml)): 100%; MBC in the presence of NaCl [6]: 31.25(31.25) µg/ml; MIC in the presence of NaCl [6]: 31.25(31.25) µg/ml; MBC in the presence of CaCl2 [6]: 7.81(7.81) µg/ml; MIC in the presence of CaCl2 [6]: 7.81(7.81) µg/ml; MBC, control [6]: 7.81(7.81) µg/ml; MIC, control [6]: 7.81(7.81) µg/ml; Hemolysis [7]: 7.25% |
| CC[C@@H](C)[C@@H](NC(=O)[C@@H](CCCCN)NC(=O)CNC(=O)[C@@H](C)NC(=O)[C@H](NC(=O)[C@@H](CCCCN)NC(=O)[C@@H](CCCCN)NC(=O)[C@H](NC(=O)[C@@H](CCCNC(=N)N)NC(=O)[C@@H](CCCNC(=N)N)NC(=O)[C@@H](Cc1ccccc1)NC(=O)[C@@H](CC(C)C)NC(=O)[C@H](N)CCCNC(=N)N)C(C)C)C(C)C)C(=O)N[C@H](C)C(=O)N[C@H](CCCCN)C(=O)N[C@H](CCCNC(=N)N)C(=O)N[C@@H](C(=O)N[C@H](Cc1c[nH]c2ccccc12)C(=O)N[C@H](CCCCN)C(N)=O)[C@H](C)CC [D-AP19] (H-[dR][dL][dF][dR][dR][dV][dK][dK][dV][dA]G[dK][dI][dA][dK][dR][dI][dW][dK]-NH2) | 7.81(7.81) µg/ml | 7.81(7.81) µg/ml | 7.81(7.81) µg/ml | 7.81(7.81) µg/ml | 15.63(15.63) µg/ml | 15.63(15.63) µg/ml | 7.81(7.81) µg/ml | 7.81(7.81) µg/ml | 7.81(7.81) µg/ml | 7.81(7.81) µg/ml | 15.63(15.63) µg/ml | 15.63(15.63) µg/ml | 7.81(7.81) µg/ml | 7.81(7.81) µg/ml | 15.63(15.63) µg/ml | 15.63(15.63) µg/ml | 7.81(7.81) µg/ml | 7.81(7.81) µg/ml | 15.63(15.63) µg/ml | 15.63(15.63) µg/ml | cell viability ([2]; 1 × and 2 × MIC): 100%; cell viability ([2]; peptide 62.5 µg/mL): more than 70%; MBC in the presence of proteinase K [3, 8]: 7.81(7.81) µg/ml; MIC in the presence of proteinase K [3, 8]: 7.81(7.81) µg/ml; MBC in the presence of trypsin [3, 9]: 7.81(7.81) µg/ml; MIC in the presence of trypsin [3, 9]: 7.81(7.81) µg/ml; MBC in the presence of NaCl [6]: 62.5(62.5) µg/ml; MIC in the presence of NaCl [6]: 62.5(62.5) µg/ml; MBC in the presence of CaCl2 [6]: 15.63(15.63) µg/ml; MIC in the presence of CaCl2 [6]: 15.63(15.63) µg/ml; MBC, control [6]: 7.81(7.81) µg/ml; MIC, control [6]: 7.81(7.81) µg/ml; Hemolysis [7]: 3.28% |

Reference: publication PMC9508196 (Scientific Reports, 2022)
